≈ marks a conversion by molar mass, not a printed value.
Tested on: primary human vascular smooth muscle cells
Test: Inhibition of cell proliferation, CyQUANT NF Cell Proliferation Assay
Assay type: cell-based
Conditions: drug in solution, FIG. 11A, read-out: IC50, dose required to achieve 50% inhibition of cell proliferation
Experimental: Cell viability was determined using CyQUANT™ NF Cell Proliferation Assay kit (Cat #C35006, ThermoFisher Scientific). Fluorescent readings were taken by a microplate reader (Cytation 5, BioTek Instruments Inc., Vermont). […] A) Dose-response effect following treatment of cells with Paclitaxel (PTX) or Sirolimus (SRL) in solution. From the dose-response study, IC50 for each drug was determined. IC50 is the dose that is required to achieve 50% inhibition of cell proliferation with respect to untreated cell.
Determination of Synergistic Effect of Combination Paclitaxel and Sirolimus: The synergistic effect of the combination treatment was determined in vitro using human vascular smooth muscle cells. The IC50 i.e., the drug amount required to inhibit cell proliferation by 50% with respect to the untreated cells was determined using cell viability assay. Drug combination index (CI) was used to determine if the combination treatment is synergistic (CI=<1), additive (CI=1) or antagonistic (CI>1).
Method: Primary human vascular smooth muscle cells (VSMCs) were incubated with different doses of the encapsulated drug(s) for six days. Cell viability was determined using CyQUANT™ NF Cell Proliferation Assay kit (Cat #C35006, ThermoFisher Scientific). Fluorescent readings were taken by a microplate reader (Cytation 5, BioTek Instruments Inc., Vermont).

Work on `CC(=O)O[C@H]1C(=O)[C@@]2(C)[C@H]([C@H](OC(=O)c3ccccc3)[C@]3(O)C[C@H](OC(=O)[C@H](O)[C@@H](NC(=O)c4ccccc4)c4ccccc4)C(C)=C1C3(C)C)[C@]1(OC(C)=O)CO[C@@H]1C[C@@H]2O` [PTX, Paclitaxel] yielded an IC50 of 1.16 µg/mL (≈ 1.35 µM).
Work on `CO[C@H]1C[C@@H]2CC[C@@H](C)[C@@](O)(O2)C(=O)C(=O)N2CCCC[C@H]2C(=O)O[C@H]([C@H](C)C[C@@H]2CC[C@@H](O)[C@H](OC)C2)CC(=O)[C@H](C)/C=C(\C)[C@@H](O)[C@@H](OC)C(=O)[C@H](C)C[C@H](C)/C=C/C=C/C=C/1C` [SRL, Sirolimus] yielded an IC50 of 29.1 µg/mL (≈ 31.8 µM).
